From US10980768B2, “Composition containing carboplatin and use” (SYN-NAT PRODUCTS ENTERPRISE LLC, priority 2015, dated 2021) come the findings set out here.

Data set [1] deals with A498 cells. The data set can be described thus: Cell viability (MTS) assay in A498 cells, renal adenocarcinoma study. The format is cell-based. Particulars: A498 renal carcinoma cells, OD490 cell viability. An excerpt: (§1) Cell culture: A498 and ACHN cells were purchased from Tongbai Bio (Shanghai, China).
In data set [2] the test system is ACHN cells. The data set can be described thus: Cell viability (MTS) assay in ACHN cells, renal adenocarcinoma study. Type of data set: cell-based. Particulars: ACHN renal carcinoma cells, OD490 cell viability.
Source text: as §1

Data set [3] deals with HEK293 cells. The data set can be described thus: Cell viability (MTS) assay in HEK293 cells, renal adenocarcinoma study. Particulars: HEK293 normal embryonic kidney cells. Type of data set: cell-based, human.
For data set [4], the system named is HL-7002 cells. As to the kind of experiment: Cell viability (MTS) assay in HL-7002 cells, renal adenocarcinoma study.
Data set [5] concerns HL-60 cells. As to the kind of experiment: Cell viability (MTS) assay in HL-60 cells, leukemia study. Particulars: HL-60 human promyelocytic leukemia cells, OD490 cell viability. The format is cell-based.
In data set [6] the test system is K562 cells. As to the kind of experiment: Cell viability (MTS) assay in K562 cells, leukemia study. The settings on record: for toxicity: K562 cells, result in words; for IC50: K562 human myelogenous leukemia cells, OD490 cell viability. The format is cell-based, human.
In data set [7] the test system is HEK293 cells. As to the kind of experiment: Cell viability (MTS) assay in HEK293 cells, leukemia study. Particulars: for IC50: Homo sapiens, HEK293; for toxicity: HEK293 cells, leukemia study, result in words.
Data set [8] has as its system HL-7002 cells. The settings on record: leukemia study; for IC50: HL-7002 human fetal hepatic cells.
Procedure: After comparison of OD490 values of the tested agents and the control agents, an index of relative repression rate of cell proliferation was obtained. The IC50 value was calculated by using the SPSS16.0 software.
The cells were cultured in RPMI+5% Fetal Bovine Serum (FBS).
Cells treated with the solvents were used as negative controls, and carboplatin, etiposide and MTX were used as the positive controls. The cells were monitored daily, and the cell viability was evaluated with the Promega CellTiter 96 AQueous One Solution Cell Proliferation Assay (Promega, Madison, Wis., USA) according to the manufacture manuals. The cell viability was monitored at OD490 reading in a bio-spectrometer (Perkin Elmer, Walthan, Mass., USA).
Data analysis: The OD490 reading data were collected hourly from 1 h to 4 h after the addition of lysis buffer. The index of cell growth repression ratio was obtained by comparing the OD490 data of treatment to the negative control. The drug response rate IC50 was calculated with the SPSS 16.0 software.
The subject of data set [9] is melanoma. As to the kind of experiment: Case of a melanoma patient with multiple metastases in the brain and adrenal gland treated with DCP solution. Type of data set: in vivo, human. An excerpt: The following case summarizes DCP's pharmaceutical use on a melanoma patient with multiple metastases in the brain and adrenal grand. A metastatic tumor mass firstly was detected at the right frontal and parietal lobe of a patient's brain by MRI, and was removed by surgery in one month later. However, a new tumor mass with edema around it was detected at the left of parietal lobe. The tumor grew bigger, and the edema around the tumor became worse about two months after the new tumor was detected. The patient was treated with DCP solution (150 mg of DCP in 250 mL aqueous solution one time for every three days) for about three weeks.
The left lateral ventricle was compressed. The sign of removed tumors could be distinguished at the right frontal and parietal lobe, and the postoperative repair was found in the right frontal parietal bone. The midline structure shifted to the right side.
After treatment with DCP solution for about three weeks, the patient was examined (FIG. 10). […] The tumors at the right frontal and parietal lobe were removed, and the midline structure was normal.

Where [10] appears, read: HL-7002 normal hepatocytes, renal adenocarcinoma study.
Setting [11] is: after DCP solution for about three weeks.
Where [12] appears, read: melanoma brain metastasis, 150 mg DCP in 250 mL every three days for about three weeks.

Like-named read-outs stand apart in the source and are kept apart here.

As usually defined, the IC50 is the midpoint of a concentration-inhibition curve. Read a high IC50 as weaker potency. For the compound `O=c1[nH]cc(F)c(=O)[nH]1` [5-FU, fluorouracil], the IC50 in [1] (Homo sapiens) came to 18.2 µM; in [2] (Homo sapiens), 6.45 µM; in data set [3] (Homo sapiens), 45 µM; in [4] (Homo sapiens, Hepatocyte), 356 µM.
Regarding `CN(Cc1cnc2nc(N)nc(N)c2n1)c1ccc(C(=O)N[C@@H](CCC(=O)O)C(=O)O)cc1` [MTX, Methotrexate], the concentration for half-maximal inhibition (IC50) in [5] is 15.3 µM; in data set [7], 17.6 µM. The toxicity entry is reported as “did not show any toxicity” in data set [6] and “little toxicity” in data set [8] (HL-7002 cells, result in words).
Regarding `N.N.O=C([O-])C1(C(=O)[O-])CCC1.[Pt+2]` [carboplatin], the IC50 in data set [5] is 17.3 µM; in [6], 1210 µM; in [1] it was 18.4 µM; in data set [2], 11 µM; in data set [3], 410 µM; in data set [8], 503 µM. In data set [4] (setting [10]), the IC50 was determined as 1410 µM. In addition, in data set [7], the toxicity result is “no toxicity”.
In the case of `COc1cc([C@@H]2c3cc4c(cc3[C@@H](O[C@@H]3O[C@@H]5CO[C@@H](C)O[C@H]5[C@H](O)[C@H]3O)[C@H]3COC(=O)[C@H]23)OCO4)cc(OC)c1O` [etoposide], the IC50 was 15.3 µM in [5], 359 µM in [7] and 512 µM in data set [8]. Besides, in data set [6], the toxicity entry is “did not show any toxicity”.
Consider dicycloplatin [DCP], for which the IC50 was 18.6 µM in data set [5]; 812 µM in data set [6]; 20.9 µM in data set [1]; 15.4 µM in [2]; 463 µM in data set [3]; 503 µM in [8]. For the same compound, the IC50 in data set [4] (setting [10]) came out at 1470 µM. Further, the toxicity entry in [7] is “no toxicity”. In addition, the “edema around the tumor, post-chemo CT” value in data set [9] (setting [11]) is listed as “significantly relieved”. Besides, the “tumor mass at the left of parietal lobe, post-chemo CT vs pre-chemo CT” value in data set [9] (setting [11]) is reported as “shrunk”. Besides, the “edema around the tumor by MRI” value in [9] (setting [12]) is reported as “relieved”. Also, the “tumor mass by MRI” value in [9] (setting [12]) was “shrunk”. For the same compound, in data set [4] (HL-7002 and HEK293 normal cells, compared to 5-FU), the “cellular toxicity lower than 5-FU” value came to 4 fold.
